# Source: ChEMBL document CHEMBL3822426, “A cascade screening approach for the identification of Bcr-Abl myristate pocket binders active against wild type and T315I mutant” (Bioorg Med Chem Lett, 2016)
# Activity calls are given as the source filed them. The rule behind the calls is not given here.
# Key:
# [1] = biological target: Tyrosine-protein kinase ABL1 (Homo sapiens, UniProt P00519, T315I); experiment: Allosteric inhibition of recombinant human N-terminal His6-tagged ABL (27-end residues) T315I mutant expressed in baculovirus infected sf21 cells using Abl-tide as substrate incubated for 10 mins in presence of [gamma32P]ATP by scintillation counting method
# [2] = Cytotoxicity against mouse 32D cells assessed as reduction in cell viability at 0.5 to 50 uM after 48 hrs by cell counting method; assay type: cell-based
# [3] = Cytotoxicity against imatinib mesylate sensitive mouse 32D cells expressing wild type BCR/ABL p210 assessed as reduction in cell viability after 48 hrs by cell counting method; assay type: functional, cell-based
# [4] = Cytotoxicity against imatinib mesylate resistant mouse 32D cells expressing BCR/ABL T315I mutant assessed as reduction in cell viability after 48 hrs by cell counting method; assay type: functional, cell-based
# [5] = tested on: Bcr/Abl fusion protein (Homo sapiens), P00519+P11274 [T315I]; experiment: Inhibition of BCR/ABL T315I mutant (unknown origin) expressed in mouse 32D cells assessed as reduction in CRKL phosphorylation at Tyr-207 residue at 1 uM after 24 hrs by Western blot analysis; assay type: cell-based
# [6] = biological target: Tyrosine-protein kinase ABL1 (Homo sapiens) (UniProt P00519); conditions: 25 uM
# Description: Allosteric inhibition of recombinant wild type ABL (unknown origin) assessed as Vmax(app) for ATP at 25 uM incubated for 10 mins in presence of [gamma32P]ATP by scintillation counting method
# [7] = biological target: Tyrosine-protein kinase ABL1 (Homo sapiens) (UniProt P00519); conditions: 50 uM
# Description: Allosteric inhibition of recombinant wild type ABL (unknown origin) assessed as Vmax(app) for ATP at 50 uM incubated for 10 mins in presence of [gamma32P]ATP by scintillation counting method
# [8] = biological target: Tyrosine-protein kinase ABL1 (Homo sapiens) (UniProt P00519); conditions: 100 uM
# Description: Allosteric inhibition of recombinant wild type ABL (unknown origin) assessed as Vmax(app) for ATP at 100 uM incubated for 10 mins in presence of [gamma32P]ATP by scintillation counting method
# [9] = tested on: Tyrosine-protein kinase ABL1 (Homo sapiens), P00519 [T315I]; conditions: Sf21, 25 uM
# Description: Allosteric inhibition of recombinant human N-terminal His6-tagged ABL (27-end residues) T315I mutant expressed in baculovirus infected sf21 cells assessed as Vmax(app) for ATP at 25 uM incubated for 10 mins in presence of [gamma32P]ATP by scintillation counting method
# [10] = tested on: Tyrosine-protein kinase ABL1 (Homo sapiens), P00519 [T315I]; conditions: Sf21, 50 uM
# Description: Allosteric inhibition of recombinant human N-terminal His6-tagged ABL (27-end residues) T315I mutant expressed in baculovirus infected sf21 cells assessed as Vmax(app) for ATP at 50 uM incubated for 10 mins in presence of [gamma32P]ATP by scintillation counting method
# [11] = tested on: Tyrosine-protein kinase ABL1 (Homo sapiens), P00519 [T315I]; conditions: Sf21, 100 uM
# Description: Allosteric inhibition of recombinant human N-terminal His6-tagged ABL (27-end residues) T315I mutant expressed in baculovirus infected sf21 cells assessed as Vmax(app) for ATP at 100 uM incubated for 10 mins in presence of [gamma32P]ATP by scintillation counting method
Compound,IC50 [1] [µM],Activity [2],IC50 [3] [µM],IC50 [4] [µM],inhibition [5],Vmax(app) [6] [pmol/min],Vmax(app) [7] [pmol/min],Vmax(app) [8] [pmol/min],Vmax(app) [9] [pmol/min],Vmax(app) [10] [pmol/min],Vmax(app) [11] [pmol/min]
C(=C\n1ncc2c(NC3CCCCC3)ncnc21)/c1ccccc1,50,Non-toxic,8.5,25.1,Active,13.1,8.57,5.83,15,8.06,4.95
C(=C\n1ncc2c(N3CCCCCC3)ncnc21)/c1ccccc1,20,Non-toxic,1.2,13.8,Active,–,–,–,–,–,–
